Test results from US6369109B1, “Betulinic acid and derivatives thereof useful for the treatment of neuroectodermal tumor” (Deutsches Krebsforschungszentrum Stiftung des Offentlichen …, priority 1998, dated 2002).

What was measured:
[1] = tested on: cytochrome c in SHEP cells; experiment: Drug-induced release of cyt c from mitochondria in cells (Western blot); type: cell-based, human; conditions: 0.5 μg/ml Doxo or 10 μg/ml Bet A; FIG. 16A
Protocol: Cells were lysed for 30 mm at 4° C. in PBS with 0.5% Triton X (Serva, Heidelberg, Germany) and 1 mM PMSF (Sigma, Deisenhofen, Germany) followed by high-speed centrifugation. Membrane proteins were eluted in buffer containing 0.1 M glycine, pH 3.0 and 1.5 M Tris, pH 8.8. Protein concentration was assayed using bicinchoninic acid (Pierce, Rockford, Ill.). 40 μg protein per lane was separated by 12% or 15% SDS-PAGE and electroblotted onto nitrocellulose (Amersham, Braunschweig, Germany). Equal protein loading was controlled by Ponceau red staining of membranes. […]
For isolation of mitochondria, cells (3×10^8 per sample) were washed twice with ice-cold PBS and resuspended with five volumes of buffer A (50 mM Tris buffer, 1 mM EGTA, 5 mM 2-mercaptoethanol, 0.2% BSA, 10 mM KH2PO4, pH 7.6, 0.4 M sucrose) and allowed to swell on ice for 20 min. […] The protein concentration of mitochondria or cytosolic extracts was determined by the Bradford method. […]

[2] = tested on: mitochondria isolated from SHEP cells; experiment: Cytochrome c release from isolated mitochondria (Western blot); type: biochemical, human; conditions: bongkrekic acid; FIG. 10C
Protocol: Cells were lysed for 30 min at 4° C. in PBS with 0.5% Triton X (Serva, Heidelberg, Germany) and 1 mM PMSF (Sigma, Deisenhofen, Germany) followed by high-speed centrifugation. Membrane proteins were eluted in buffer containing 0.1 M glycine, pH 3.0 and 1.5 M Tris, pH 8.8. Protein concentration was assayed using bicinchoninic acid (Pierce, Rockford, Ill.). 40 μg protein per lane was separated by 12% or 15% SDS-PAGE and electro blotted onto nitrocellulose (Amersharn, Braunschweig, Germany). Equal protein loading was controlled by Ponceau red staining of membranes. After blocking for 1 h in PBS supplemented with 2% BSA (Sigma) and 0.1% Tween 20 (Sigma), immunodetection of caspases-3 and -8, PARP, and cytochrome c protein was done using mouse anti-caspase-8 mAb C15 (Scaffidi et al., 1997, J. Biol. Chem. 272, 26953-26958, 1:5 dilution of hybridoma supernatant), mouse anti-caspase-3-specific mAb (1:1000, Transduction Laboratories, Lexington, Ky.), rabbit anti-PARP polyclonal antibody (1:10000, Enzyme Systems Products) or mouse anti-cytochrome c mAb (1:5000, PharMingen, San Diego, Calif.). Goat anti-mouse IgG or goat anti-rabbit IgG (1:5000, Santa Cruz Biotechnology) followed by ECL (Amersham) was used for detection.
Mitochondria isolated from SHEP cells transfected with bcl-2, Bcl-XL or a neontycin resistance vector only (Neo) were treated with 10 μg/ml betulinic acid. […]

Row | Structure (SMILES) | mitochondrial cytochrome c levels after stimulation [1] | effect of inhibitor on betulinic acid-driven release of cytochrome c [2]
1 | COc1cccc2c1C(=O)c1c(O)c3c(c(O)c1C2=O)C[C@@](O)(C(=O)CO)C[C@@H]3O[C@H]1C[C@H](N)[C@H](O)[C@H](C)O1 [doxorubicin] | mitochondrial cytochrome c levels declined | 
2 | CO[C@H](C/C=C\C=C\CC/C=C/C[C@H](C)/C=C/C(=C\C(=O)O)CC(=O)O)/C(C)=C\C=C(/C)C(=O)O [bongkrekic acid] |  | blocked
